Data from article PMC5608556, “Photo-affinity labelling and biochemical analyses identify the target of trypanocidal simplified natural product analogues” (PLoS Neglected Tropical Diseases, 2017).

Assays:
T. brucei BSF = test: Toxicity (EC50) in bloodstream form T. brucei; format: cell-based, Trypanosoma brucei
Excerpt: (§1) Fig 1 Labelling and detection of B-THP-T target(s). (A) Structures of chamuvarinin and simplified analogues thereof as probes used in this study and their respective toxicity in selected cell lines. Bi-functional compound 3 contains a diazirine (blue) to cross-link the compound to its target and an alkyne handle (red) to which an azide-containing reporter probe can be added. Mono-functional compound 2 contains the diazirine to cross-link to its target but lacks the alkyne handle and cannot be appended with an azide reporter probe. Lead B-THP-T, compound 1, lacks both diazirine and alkyne. The additional functional groups on compounds 2 and 3 are minor alterations, which have little effect on inhibitor potency. (B) Overview of the in vivo pulse-chase photo-affinity labelling procedure. B-THP-T were incubated with live PF T. brucei cells and trafficked to their targets. Following UV-irradiation, only compounds containing a diazirine (i.e. compounds 2 and 3) could cross-link with target proteins. The subsequent “click reaction” appended the conjugated B-THP-T with a reporter probe as long as an alkyne handle was present (i.e. on compound 3). Refer to the experimental section for details. (C) Detection of Cy5.5-tagged proteins following photo-affinity labelling. Proteins were separated by SDS-PAGE and conjugated Cy5.5 was detected at 700 nm. Lanes 1–3 correspond to usage of compounds 1–3 respectively. Several proteins in lane 3 were conjugated with Cy5.5 via labelling with bi-functional compound 3. […]

[1] = tested on: mitochondrial membrane potential (Δψm) in live PF T. brucei; test: MitoTracker monitoring of mitochondrial membrane potential; format: cell-based, Trypanosoma brucei; settings: 2 h; for Elevation of mitochondrial membrane potential (Δψm): compounds at 40 μM, MitoTracker Red/Green ratio relative to uninhibited control; for Effect on mitochondrial membrane potential (Δψm): AA and OA 2 μM, DNP 1 mM
Excerpt: To determine which mitochondrial complex of oxidative phosphorylation was targeted by B-THP-T compounds, their effects on the mitochondrial membrane potential (Δψm) were monitored in live PF T. brucei (Fig 6A). MitoTracker Red CMXRos, like tetramethylrhodamine and safranine, accumulates in active mitochondria and the degree of accumulation is dependent on the Δψm, however, accumulation of MitoTracker Green FM is independent of the Δψm and the ratio of red/green uptake can therefore be used to determine the Δψm normalised to the number and size of mitochondria present. […] Similarly, compounds 1 and 3 elevated the mitochondrial membrane potential (by 2-3-fold), confirming that they, like OA, reduce oxidative phosphorylation by the inhibition of the FoF1-ATP synthase.
Fig 6 Effects of compounds on mitochondrial membrane potential. PF T. brucei were incubated with inhibitors and MitoTracker Red CMXRos, which is an indicator of the mitochondrial membrane potential (Δψm). (A) MitoTracker-loaded cells were imaged to qualitatively detect differences in the Δψm. […] (B) Fluorescence of MitoTracker-loaded cells were quantified using a microplate reader and normalised to MitoTracker green fluorescence.
2 x 10^6 PF T. brucei cells were incubated in 1 mL GF-SDM-79 growth media supplemented with/without inhibitors for 2 h. B-THP-Ts were used at 40 μM, AA and OA at 2 μM, DNP at 1 mM and SHAM at 100 μM. MitoTracker Red CMXRos and MitoTracker Green FM were added to 100 nM and 1 μM respectively and incubated for a further 10 min. Cells were washed in growth medium and the MitoTracker reagents chased into the mitochondrion for 10 min in fresh growth medium supplemented with inhibitors. Cells were washed again in growth medium to remove unincorporated MitoTracker reagents, pelleted, suspended in 100 μL 4% PFA in PBS, and fixed at RT in the dark for 10 min. Fixed cells were pelleted and suspended in 100 μl PBS. Cells were transferred to poly-lysine-coated slides and mounted with DAPI-containing SlowFade mounting medium (Invitrogen). Fluorescence images were collected with a DeltaVision microscope (as detailed above) to show MitoTracker localisation and comparative intensity.
1 mL of cells at 1 x 10^7 cells/mL were labelled as above. However, instead of fixing cells they were resuspended in 200 μL growth medium and transferred to 96-well plates. Fluorescences were recorded (excitation at 540/35 nm, emission at 590/10 nm for MitoTracker Red CMXRos, and excitation at 485/20 nm, emission at 528/20 nm for MitoTracker Green FM) using a BioTek FLX800 spectrofluorimeter and Gen5 Reader Control 2.0 software, in much the same way as others have recorded previously. Background fluorescence values were subtracted from each and MitoTracker Red fluorescences normalised against their MitoTracker Green FM counterparts. Membrane potentials were then calculated relative to the uninhibited controls.

T. brucei PF = test: Toxicity (EC50, cell viability) in procyclic form T. brucei; format: cell-based; settings: Trypanosoma brucei, live cells, 72 h incubation, footnote a
Excerpt: as §1
The potency of lead B-THP-T, compound 1, was determined against oxidative phosphorylation in dose-response assays in digitonin-permeabilised PF T. brucei.
Supplementary file pntd.0005886.s001.tiff: S1 Fig Dose-response of B-THP-T compounds in PF T. brucei. EC50 values were determined for compounds 1–3 in PF T. brucei. […]

SMILES	Selectivity towards T. brucei over mammalian HeLa cells (T. brucei BSF; from EC50 values of Fig 1)	Elevation of mitochondrial membrane potential (Δψm) [1]	EC50 (T. brucei PF) [µM]	EC50 (T. brucei BSF; Trypanosoma brucei, bloodstream form, footnote b) [µM]	Effect on mitochondrial membrane potential (Δψm) [1]
CCCCCC[C@H]1CCC[C@@H](Cn2cc([C@@H]3CCC[C@H](CCCCO)O3)nn2)O1 [Compound 1]	only modest selectivity	2-3 fold	8.4		
C#CCNC(=O)CCC[C@H]1CC2(C[C@@H](Cn3cc([C@@H]4CCC[C@H](CCCCOCc5ccccc5)O4)nn3)O1)N=N2 [Compound 3]		2-3 fold	16.1 ± 0.6	13 ± 1	
CCCCCC[C@H]1C(=O)O[C@H](C)[C@H](NC(=O)c2cccc(NC=O)c2O)C(=O)O[C@@H](C)[C@@H]1OC(=O)CC(C)C [antimycin A]					decrease the Δψm
O=C(O)CC(=O)O [malonate]					decrease the Δψm
